Experimental data published in the supplement of paper PMC10307832.

Tests used:
Assay in all cases: relative viability (nuclei count vs DMSO), 5 days (fraction); higher = more cells survive
[1] = tested on: NCI-H460
Outline: (§1)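 Relative viability is defined as nuclei in treated wells over nuclei in vehicle wells. Duplicate plates were run and medians reported. Lung cancer cell lines in 1536-well plates were dosed by pin tool one day after seeding, with one drug or with a fixed anchor-drug dose plus five library-drug doses (not always all listed) in √10 steps, and nuclei were counted after 5 days.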

[2] = tested on: NCI-H727
Outline: as §1

[3] = tested on: LCLC-97TM1
Outline: as §1

[4] = tested on: NCI-H2347
Outline: as §1

[5] = tested on: H3255
Outline: as §1

[6] = tested on: NCI-H650
Outline: as §1

[7] = tested on: LK-2
Outline: as §1

[8] = tested on: NCI-H1563
Outline: as §1

[9] = tested on: COR-L23
Outline: as §1

[10] = tested on: 201T
Outline: as §1

[11] = tested on: PC-3 [JPC-3]
Outline: as §1

[12] = tested on: A-427
Outline: as §1

[13] = tested on: NCI-H23
Outline: as §1

[14] = tested on: NCI-H1944
Outline: as §1

[15] = tested on: NCI-H1650
Outline: as §1

[16] = tested on: NCI-H838
Outline: as §1

[17] = tested on: PC-14
Outline: as §1

[18] = tested on: NCI-H1793
Outline: as §1

[19] = tested on: LU99A
Outline: as §1

[20] = tested on: SW 1573
Outline: as §1

[21] = tested on: HCC-44
Outline: as §1

**Q.** What does the source list for `CC1(C)CCC(c2ccc(Cl)cc2)=C(CN2CCN(c3ccc(C(=O)NS(=O)(=O)c4ccc(N[C@H](CCN5CCOCC5)CSc5ccccc5)c(S(=O)(=O)C(F)(F)F)c4)cc3)CC2)C1` [Navitoclax] + CS(=O)(=O)CCNCc1ccc(-c2ccc3ncnc(Nc4ccc(OCc5cccc(F)c5)c(Cl)c4)c3c2)o1 [Lapatinib] (partner 2 µM)?
**A.** relative viability ([1]; first compound 0.005 µM): 0.909; relative viability ([1]; first compound 0.01581 µM): 0.917; relative viability ([1]; first compound 0.05 µM): 1.09; relative viability ([1]; first compound 0.1581 µM): 0.892; relative viability ([1]; first compound 0.5 µM): 0.905; relative viability ([2]; first compound 0.005 µM): 0.925; relative viability ([2]; first compound 0.01581 µM): 1.01; relative viability ([2]; first compound 0.1581 µM): 0.982; relative viability ([2]; first compound 0.5 µM): 0.657; relative viability ([3]; first compound 0.005 µM): 0.884; relative viability ([3]; first compound 0.01581 µM): 1.21; relative viability ([3]; first compound 0.05 µM): 0.865; relative viability ([3]; first compound 0.1581 µM): 0.856; relative viability ([3]; first compound 0.5 µM): 1.17; relative viability ([4]; first compound 0.005 µM): 0.957; relative viability ([4]; first compound 0.01581 µM): 1.09; relative viability ([4]; first compound 0.05 µM): 0.753; relative viability ([4]; first compound 0.1581 µM): 0.765; relative viability ([4]; first compound 0.5 µM): 0.923; relative viability ([5]; first compound 0.005 µM): 0.271; relative viability ([5]; first compound 0.01581 µM): 0.258; relative viability ([5]; first compound 0.05 µM): 0.226; relative viability ([5]; first compound 0.1581 µM): 0.25; relative viability ([5]; first compound 0.5 µM): 0.19; relative viability ([6]; first compound 0.005 µM): 0.709; relative viability ([6]; first compound 0.01581 µM): 0.977; relative viability ([6]; first compound 0.05 µM): 1.07; relative viability ([6]; first compound 0.1581 µM): 0.894; relative viability ([6]; first compound 0.5 µM): 0.881; relative viability ([7]; first compound 0.005 µM): 0.802; relative viability ([7]; first compound 0.01581 µM): 1.08; relative viability ([7]; first compound 0.05 µM): 1.04; relative viability ([7]; first compound 0.1581 µM): 0.886; relative viability ([7]; first compound 0.5 µM): 1.05; relative viability ([8]; first compound 0.005 µM): 1.08; relative viability ([8]; first compound 0.01581 µM): 1.23; relative viability ([8]; first compound 0.05 µM): 0.877; relative viability ([8]; first compound 0.1581 µM): 1.05; relative viability ([8]; first compound 0.5 µM): 1.44; relative viability ([9]; first compound 0.005 µM): 0.919; relative viability ([9]; first compound 0.01581 µM): 1.25; relative viability ([9]; first compound 0.05 µM): 1.33; relative viability ([9]; first compound 0.1581 µM): 0.705; relative viability ([9]; first compound 0.5 µM): 0.922; relative viability ([10]; first compound 0.005 µM): 1.06; relative viability ([10]; first compound 0.01581 µM): 1.12; relative viability ([10]; first compound 0.05 µM): 0.992; relative viability ([10]; first compound 0.1581 µM): 1.03; relative viability ([10]; first compound 0.5 µM): 1.06; relative viability ([11]; first compound 0.005 µM): 0.403; relative viability ([11]; first compound 0.01581 µM): 0.438; relative viability ([11]; first compound 0.05 µM): 0.441; relative viability ([11]; first compound 0.1581 µM): 0.474; relative viability ([11]; first compound 0.5 µM): 0.487; relative viability ([12]; first compound 0.005 µM): 1.05; relative viability ([12]; first compound 0.01581 µM): 0.956; relative viability ([12]; first compound 0.05 µM): 0.825; relative viability ([12]; first compound 0.1581 µM): 1.05; relative viability ([12]; first compound 0.5 µM): 1.06; relative viability ([13]; first compound 0.005 µM): 1.05; relative viability ([13]; first compound 0.01581 µM): 1.05; relative viability ([13]; first compound 0.05 µM): 1.11; relative viability ([13]; first compound 0.1581 µM): 1.05; relative viability ([13]; first compound 0.5 µM): 1.09; relative viability ([14]; first compound 0.005 µM): 0.869; relative viability ([14]; first compound 0.01581 µM): 0.871; relative viability ([14]; first compound 0.05 µM): 0.629; relative viability ([14]; first compound 0.1581 µM): 0.788; relative viability ([14]; first compound 0.5 µM): 0.833; relative viability ([15]; first compound 0.005 µM): 0.818; relative viability ([15]; first compound 0.01581 µM): 1.07; relative viability ([15]; first compound 0.05 µM): 0.88; relative viability ([15]; first compound 0.1581 µM): 1.02; relative viability ([15]; first compound 0.5 µM): 0.957; relative viability ([16]; first compound 0.005 µM): 0.921; relative viability ([16]; first compound 0.01581 µM): 1.16; relative viability ([16]; first compound 0.05 µM): 1.29; relative viability ([16]; first compound 0.1581 µM): 0.97; relative viability ([16]; first compound 0.5 µM): 1.03; relative viability ([17]; first compound 0.005 µM): 0.343; relative viability ([17]; first compound 0.01581 µM): 0.343; relative viability ([17]; first compound 0.05 µM): 0.283; relative viability ([17]; first compound 0.1581 µM): 0.385; relative viability ([17]; first compound 0.5 µM): 0.338; relative viability ([18]; first compound 0.005 µM): 0.601; relative viability ([18]; first compound 0.01581 µM): 0.779; relative viability ([18]; first compound 0.05 µM): 0.467; relative viability ([18]; first compound 0.1581 µM): 0.843; relative viability ([18]; first compound 0.5 µM): 0.557; relative viability ([19]; first compound 0.005 µM): 0.985; relative viability ([19]; first compound 0.01581 µM): 1.19; relative viability ([19]; first compound 0.05 µM): 0.977; relative viability ([19]; first compound 0.1581 µM): 1.04; relative viability ([19]; first compound 0.5 µM): 1.07; relative viability ([20]; first compound 0.005 µM): 1.22; relative viability ([20]; first compound 0.01581 µM): 1.08; relative viability ([20]; first compound 0.05 µM): 1.01; relative viability ([20]; first compound 0.1581 µM): 1.04; relative viability ([20]; first compound 0.5 µM): 1.09; relative viability ([21]; first compound 0.005 µM): 0.888; relative viability ([21]; first compound 0.01581 µM): 1.03; relative viability ([21]; first compound 0.05 µM): 0.996; relative viability ([21]; first compound 0.1581 µM): 0.971; relative viability ([21]; first compound 0.5 µM): 1.04

**Q.** What does the source list for `Oc1nc(-c2ccc(C(F)(F)F)cc2)nc2c1CSCC2` [XAV939] + CS(=O)(=O)CCNCc1ccc(-c2ccc3ncnc(Nc4ccc(OCc5cccc(F)c5)c(Cl)c4)c3c2)o1 [Lapatinib] (partner 2 µM)?
**A.** relative viability ([1]; first compound 0.08 µM): 1.38; relative viability ([1]; first compound 0.253 µM): 0.723; relative viability ([1]; first compound 0.8 µM): 0.91; relative viability ([1]; first compound 2.53 µM): 0.937; relative viability ([2]; first compound 0.08 µM): 1.14; relative viability ([2]; first compound 0.253 µM): 0.589; relative viability ([2]; first compound 0.8 µM): 0.759; relative viability ([2]; first compound 2.53 µM): 0.877; relative viability ([3]; first compound 0.08 µM): 1.11; relative viability ([3]; first compound 0.253 µM): 0.959; relative viability ([3]; first compound 0.8 µM): 0.668; relative viability ([3]; first compound 2.53 µM): 0.81; relative viability ([4]; first compound 0.08 µM): 0.944; relative viability ([4]; first compound 0.253 µM): 0.708; relative viability ([4]; first compound 0.8 µM): 0.805; relative viability ([4]; first compound 2.53 µM): 0.672; relative viability ([5]; first compound 0.08 µM): 0.19; relative viability ([5]; first compound 0.253 µM): 0.238; relative viability ([5]; first compound 0.8 µM): 0.233; relative viability ([5]; first compound 2.53 µM): 0.186; relative viability ([6]; first compound 0.08 µM): 0.868; relative viability ([6]; first compound 0.253 µM): 0.957; relative viability ([6]; first compound 0.8 µM): 1; relative viability ([6]; first compound 2.53 µM): 0.893; relative viability ([7]; first compound 0.08 µM): 0.979; relative viability ([7]; first compound 0.253 µM): 0.981; relative viability ([7]; first compound 0.8 µM): 1.04; relative viability ([7]; first compound 2.53 µM): 0.928; relative viability ([8]; first compound 0.08 µM): 1.15; relative viability ([8]; first compound 0.253 µM): 0.852; relative viability ([8]; first compound 0.8 µM): 0.809; relative viability ([8]; first compound 2.53 µM): 0.773; relative viability ([9]; first compound 0.08 µM): 1.04; relative viability ([9]; first compound 0.253 µM): 0.924; relative viability ([9]; first compound 0.8 µM): 0.932; relative viability ([9]; first compound 2.53 µM): 0.89; relative viability ([10]; first compound 0.08 µM): 1.08; relative viability ([10]; first compound 0.253 µM): 0.866; relative viability ([10]; first compound 0.8 µM): 0.948; relative viability ([10]; first compound 2.53 µM): 0.896; relative viability ([11]; first compound 0.08 µM): 0.454; relative viability ([11]; first compound 0.253 µM): 0.417; relative viability ([11]; first compound 0.8 µM): 0.435; relative viability ([11]; first compound 2.53 µM): 0.443; relative viability ([12]; first compound 0.08 µM): 1.09; relative viability ([12]; first compound 0.253 µM): 1.02; relative viability ([12]; first compound 0.8 µM): 1.11; relative viability ([12]; first compound 2.53 µM): 1.03; relative viability ([13]; first compound 0.08 µM): 1.17; relative viability ([13]; first compound 0.253 µM): 1.01; relative viability ([13]; first compound 0.8 µM): 0.966; relative viability ([13]; first compound 2.53 µM): 0.932; relative viability ([14]; first compound 0.08 µM): 1.16; relative viability ([14]; first compound 0.253 µM): 0.865; relative viability ([14]; first compound 0.8 µM): 0.834; relative viability ([14]; first compound 2.53 µM): 0.679; relative viability ([15]; first compound 0.08 µM): 0.762; relative viability ([15]; first compound 0.253 µM): 0.726; relative viability ([15]; first compound 0.8 µM): 0.836; relative viability ([15]; first compound 2.53 µM): 0.454; relative viability ([16]; first compound 0.08 µM): 1.13; relative viability ([16]; first compound 0.253 µM): 0.918; relative viability ([16]; first compound 0.8 µM): 0.949; relative viability ([16]; first compound 2.53 µM): 0.767; relative viability ([17]; first compound 0.08 µM): 0.301; relative viability ([17]; first compound 0.253 µM): 0.307; relative viability ([17]; first compound 0.8 µM): 0.262; relative viability ([17]; first compound 2.53 µM): 0.266; relative viability ([18]; first compound 0.08 µM): 0.892; relative viability ([18]; first compound 0.253 µM): 0.602; relative viability ([18]; first compound 0.8 µM): 0.714; relative viability ([18]; first compound 2.53 µM): 0.877; relative viability ([19]; first compound 0.08 µM): 0.964; relative viability ([19]; first compound 0.253 µM): 0.851; relative viability ([19]; first compound 0.8 µM): 0.995; relative viability ([19]; first compound 2.53 µM): 0.939; relative viability ([20]; first compound 0.08 µM): 1.11; relative viability ([20]; first compound 0.253 µM): 0.908; relative viability ([20]; first compound 0.8 µM): 1.07; relative viability ([20]; first compound 2.53 µM): 0.983; relative viability ([21]; first compound 0.08 µM): 1.01; relative viability ([21]; first compound 0.253 µM): 0.816; relative viability ([21]; first compound 0.8 µM): 0.955; relative viability ([21]; first compound 2.53 µM): 0.928
